{"source": "ChEMBL document CHEMBL5338758", "about": "“Design, Synthesis, and Bioevaluation of Novel MyD88 Inhibitor c17 against Acute Lung Injury Derived from the Virtual Screen” (J Med Chem, 2023)", "key": {"[1]": {"tested_on": "J774.A1", "assay": "Anti-inflammatory activity in mouse J774.A1 cells assessed as inhibition of LPS-induced TNF-alpha production at 10 uM pre-stimulated with LPS for 24 hrs followed by compound addition and measured after 0.5 hrs by ELISA analysis relative to control", "assay_type": "functional"}, "[2]": {"tested_on": "J774.A1", "assay": "Anti-inflammatory activity in mouse J774.A1 cells assessed as inhibition of LPS-induced TNF-alpha production pre-stimulated with LPS for 24 hrs followed by compound addition and measured after 0.5 hrs by ELISA analysis", "assay_type": "functional, cell-based"}, "[3]": {"biological_target": "Myeloid differentiation primary response protein MyD88 (Homo sapiens, UniProt Q99836)", "sequence (Q99836 whole entry, the tested form may be a part)": "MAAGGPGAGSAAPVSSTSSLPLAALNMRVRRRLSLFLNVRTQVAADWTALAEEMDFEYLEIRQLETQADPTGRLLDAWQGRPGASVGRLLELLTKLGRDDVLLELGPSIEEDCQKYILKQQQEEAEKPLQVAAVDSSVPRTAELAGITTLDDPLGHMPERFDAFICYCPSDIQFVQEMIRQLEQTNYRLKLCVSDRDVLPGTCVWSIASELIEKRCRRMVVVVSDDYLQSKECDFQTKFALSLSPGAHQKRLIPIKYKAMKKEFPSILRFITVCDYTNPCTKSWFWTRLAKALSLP", "assay": "Binding affinity to human MyD88 TIR domain by SPR analysis", "conditions": "dose 1.19-5.94 10^-5M"}, "[4]": {"tested_on": "THP-1", "assay": "Anti-inflammatory activity in human THP-1 cells assessed as inhibition of LPS-stimulated TNF-alpha release at 1.25 to 20 uM by ELISA analysis", "assay_type": "functional, cell-based", "conditions": "dose 1.25-20 µM"}, "[5]": {"tested_on": "J774.A1", "assay": "Inhibition of NF-kappaB pathway in LPS-induced mouse J774.A1 cells assessed as decrease in p65 nuclear translocation preincubated with compound for 2 hrs followed by LPS-stimulation and measured after 15 mins by Western blot analysis", "assay_type": "cell-based", "conditions": "dose 10-40 µM, time 135.0 min"}, "[6]": {"assay": "Stability of compound in rat serum at 32 degreeC measured every 2 hrs for 24 hrs by HPLC analysis", "assay_type": "ADME, cell-free"}, "[7]": {"assay": "Half-life in Sprague-Dawley rat at 1 mg/kg, iv measured at 5 to 1440 min by LC-MS/MS analysis", "assay_type": "ADME, organism-based", "conditions": "in vivo, time 5-1440 min"}, "[8]": {"assay": "Cmax in Sprague-Dawley rat at 1 mg/kg, iv measured at 5 to 1440 min by LC-MS/MS analysis", "assay_type": "ADME, organism-based", "design": "time upper 1440 min, dose 1 mg/kg, time lower 5 min, route iv", "conditions": "in vivo"}, "[9]": {"assay": "Half-life in Sprague-Dawley rat at 10 mg/kg, po measured at 15 to 1440 min by LC-MS/MS analysis", "assay_type": "ADME, organism-based", "conditions": "in vivo, time 15-1440 min"}, "[10]": {"assay": "Oral bioavailability in Sprague-Dawley rat at 10 mg/kg measured at 15 to 1440 min by LC-MS/MS analysis", "assay_type": "ADME, organism-based", "conditions": "in vivo, time 15-1440 min"}, "[11]": {"assay": "Drug distribution in Sprague-Dawley rat lung at 1 mg/kg, iv measured after 0.5 hrs by LC-MS/MS analysis", "assay_type": "ADME, organism-based", "conditions": "read-out: Drug uptake"}, "[12]": {"assay": "Drug distribution in Sprague-Dawley rat spleen at 1 mg/kg, iv measured after 0.5 hrs by LC-MS/MS analysis", "assay_type": "ADME, organism-based", "conditions": "read-out: Drug uptake"}, "[13]": {"assay": "Drug distribution in Sprague-Dawley rat heart at 1 mg/kg, iv measured after 2 hrs by LC-MS/MS analysis", "assay_type": "ADME, organism-based", "conditions": "read-out: Drug uptake"}, "[14]": {"assay": "Drug distribution in Sprague-Dawley rat liver at 1 mg/kg, iv measured after 2 hrs by LC-MS/MS analysis", "assay_type": "ADME, organism-based", "conditions": "read-out: Drug uptake"}, "[15]": {"assay": "Drug distribution in Sprague-Dawley rat spleen at 1 mg/kg, iv measured after 2 hrs by LC-MS/MS analysis", "assay_type": "ADME, organism-based", "conditions": "read-out: Drug uptake"}, "[16]": {"assay": "Drug distribution in Sprague-Dawley rat heart at 1 mg/kg, iv measured after 4 hrs by LC-MS/MS analysis", "assay_type": "ADME, organism-based", "conditions": "read-out: Drug uptake"}, "[17]": {"assay": "Drug distribution in Sprague-Dawley rat brain at 1 mg/kg, iv measured after 4 hrs by LC-MS/MS analysis", "assay_type": "ADME, organism-based", "conditions": "read-out: Drug uptake"}, "[18]": {"assay": "Drug distribution in Sprague-Dawley rat liver at 1 mg/kg, iv measured after 4 hrs by LC-MS/MS analysis", "assay_type": "ADME, organism-based", "conditions": "read-out: Drug uptake"}, "[19]": {"assay": "Drug distribution in Sprague-Dawley rat heart at 10 mg/kg, po measured after 1 hrs by LC-MS/MS analysis", "assay_type": "ADME, organism-based", "conditions": "read-out: Drug uptake"}, "[20]": {"assay": "Drug distribution in Sprague-Dawley rat kidney at 10 mg/kg, po measured after 1 hrs by LC-MS/MS analysis", "assay_type": "ADME, organism-based", "conditions": "read-out: Drug uptake"}, "[21]": {"assay": "Drug distribution in Sprague-Dawley rat liver at 10 mg/kg, po measured after 1 hrs by LC-MS/MS analysis", "assay_type": "ADME, organism-based", "conditions": "read-out: Drug uptake"}, "[22]": {"assay": "Drug distribution in Sprague-Dawley rat spleen at 10 mg/kg, po measured after 1 hrs by LC-MS/MS analysis", "assay_type": "ADME, organism-based", "conditions": "read-out: Drug uptake"}, "[23]": {"assay": "Drug distribution in Sprague-Dawley rat kidney at 10 mg/kg, po measured after 3 hrs by LC-MS/MS analysis", "assay_type": "ADME, organism-based", "conditions": "read-out: Drug uptake"}, "[24]": {"assay": "Drug distribution in Sprague-Dawley rat lung at 10 mg/kg, po measured after 3 hrs by LC-MS/MS analysis", "assay_type": "ADME, organism-based", "conditions": "read-out: Drug uptake"}, "[25]": {"assay": "Drug distribution in Sprague-Dawley rat liver at 10 mg/kg, po measured after 3 hrs by LC-MS/MS analysis", "assay_type": "ADME, organism-based", "conditions": "read-out: Drug uptake"}, "[26]": {"assay": "Drug distribution in Sprague-Dawley rat spleen at 10 mg/kg, po measured after 3 hrs by LC-MS/MS analysis", "assay_type": "ADME, organism-based", "conditions": "read-out: Drug uptake"}, "[27]": {"assay": "Drug distribution in Sprague-Dawley rat heart at 10 mg/kg, po measured after 8 hrs by LC-MS/MS analysis", "assay_type": "ADME, organism-based", "conditions": "read-out: Drug uptake"}, "[28]": {"assay": "Drug distribution in Sprague-Dawley rat lung at 10 mg/kg, po measured after 8 hrs by LC-MS/MS analysis", "assay_type": "ADME, organism-based", "conditions": "read-out: Drug uptake"}, "[29]": {"assay": "Drug distribution in Sprague-Dawley rat liver at 10 mg/kg, po measured after 8 hrs by LC-MS/MS analysis", "assay_type": "ADME, organism-based", "conditions": "read-out: Drug uptake"}, "[30]": {"assay": "Drug distribution in Sprague-Dawley rat spleen at 10 mg/kg, po measured after 8 hrs by LC-MS/MS analysis", "assay_type": "ADME, organism-based", "conditions": "read-out: Drug uptake"}, "[31]": {"assay": "Toxicity in ICR mouse assessed as effect on body weight change at 20 to 400 mg/kg, po measured upto 21 days", "assay_type": "organism-based", "conditions": "in vivo, 504 h, dose 20-400 mg/kg, time < 21 day"}, "[32]": {"assay": "Toxicity in ICR mouse assessed as mortality at 20 to 400 mg/kg, po measured upto 21 days", "assay_type": "organism-based", "conditions": "in vivo, 504 h, dose 20-400 mg/kg, time < 21 day"}, "[33]": {"tested_on": "Mus musculus", "assay": "(§1) Anti-inflammatory activity against LPS-induced […] mouse model of […] assessed as alleviation of thickened alveolar septa in lung at 20 mg/kg, po pre-treated with compound for 30 mins followed by LPS stimulation and measured after 6 hrs by H&E staining based histopathological analysis", "assay_type": "functional, organism-based", "conditions": "time 6.5 hrs"}, "[34]": {"tested_on": "Mus musculus", "assay": "as §1, with “inflammatory infiltration” for “thickened alveolar septa”", "assay_type": "functional, organism-based", "conditions": "time 6.5 hrs"}, "[35]": {"tested_on": "Mus musculus", "assay": "Anti-inflammatory activity against LPS-induced […] mouse model of […] assessed as alleviation of lung edema by measuring decrease in total lung protein level at 20 mg/kg, po pre-treated with compound for 30 mins followed by LPS stimulation and measured after 6 hrs", "assay_type": "functional, organism-based", "conditions": "time 6.5 hrs"}, "[36]": {"tested_on": "Mus musculus", "assay": "Anti-inflammatory activity against LPS-induced […] mouse model of […] assessed as decrease in TNF-alpha level in BALF at 20 mg/kg, po pre-treated with compound for 30 mins followed by LPS stimulation and measured after 6 hrs", "assay_type": "functional, organism-based", "conditions": "time 6.5 hrs"}, "[37]": {"tested_on": "Mus musculus", "assay": "Anti-inflammatory activity against LPS-induced […] mouse model of […] assessed as decrease in IL-6 level in BALF at 20 mg/kg, po pre-treated with compound for 30 mins followed by LPS stimulation and measured after 6 hrs", "assay_type": "functional, organism-based", "conditions": "time 6.5 hrs"}, "[38]": {"tested_on": "Mus musculus", "assay": "Anti-inflammatory activity against LPS-induced […] mouse model of […] assessed as decrease in IL-6 level in serum at 20 mg/kg, po pre-treated with compound for 30 mins followed by LPS stimulation and measured after 6 hrs", "assay_type": "functional, organism-based", "conditions": "time 6.5 hrs"}}, "note": "Calls of active or inactive are those of the source. The rule behind the calls is not given here."}
{"smiles": "COc1ccc(NS(=O)(=O)c2ccc(N3CCN(Cc4cccc([N+](=O)[O-])c4)CC3)c([N+](=O)[O-])c2)cn1", "values": [{"measurement": "inhibition at 10 µM", "setting": "[1]", "result": 36.7, "unit": "%"}, {"measurement": "IC50", "setting": "[2]", "result": 8.17, "unit": "µM"}, {"measurement": "Activity", "setting": "[3]", "result": "Dose-Dependent Effect"}, {"measurement": "inhibition", "setting": "[4]", "result": "Active"}, {"measurement": "inhibition", "setting": "[5]", "result": "Dose-Dependent Effect"}, {"measurement": "Stability", "setting": "[6]", "result": "Stable"}, {"measurement": "half-life", "setting": "[7]", "result": 1.1, "unit": "h"}, {"measurement": "Cmax", "setting": "[8]", "result": 2770, "unit": "ng/mL"}, {"measurement": "half-life", "setting": "[9]", "result": 7, "unit": "h"}, {"measurement": "F", "setting": "[10]", "result": 14.2, "unit": "%"}, {"measurement": "concentration at 0.5 h", "setting": "[11]", "result": 98.2, "unit": "ng/g"}, {"measurement": "concentration at 0.5 h", "setting": "[12]", "result": 32.2, "unit": "ng/g"}, {"measurement": "concentration at 2 h", "setting": "[13]", "result": 118, "unit": "ng/g"}, {"measurement": "concentration at 2 h", "setting": "[14]", "result": 192, "unit": "ng/g"}, {"measurement": "concentration at 2 h", "setting": "[15]", "result": 76.8, "unit": "ng/g"}, {"measurement": "concentration at 4 h", "setting": "[16]", "result": 275, "unit": "ng/g"}, {"measurement": "concentration at 4 h", "setting": "[17]", "result": 7.99, "unit": "ng/g"}, {"measurement": "concentration at 4 h", "setting": "[18]", "result": 137, "unit": "ng/g"}, {"measurement": "concentration at 1 h", "setting": "[19]", "result": 10.6, "unit": "ng/g"}, {"measurement": "concentration at 1 h", "setting": "[20]", "result": 4.15, "unit": "ng/g"}, {"measurement": "concentration at 1 h", "setting": "[21]", "result": 267, "unit": "ng/g"}, {"measurement": "concentration at 1 h", "setting": "[22]", "result": 78.8, "unit": "ng/g"}, {"measurement": "concentration at 3 h", "setting": "[23]", "result": 3.31, "unit": "ng/g"}, {"measurement": "concentration at 3 h", "setting": "[24]", "result": 37.1, "unit": "ng/g"}, {"measurement": "concentration at 3 h", "setting": "[25]", "result": 287, "unit": "ng/g"}, {"measurement": "concentration at 3 h", "setting": "[26]", "result": 32, "unit": "ng/g"}, {"measurement": "concentration at 8 h", "setting": "[27]", "result": 452, "unit": "ng/g"}, {"measurement": "concentration at 8 h", "setting": "[28]", "result": 527, "unit": "ng/g"}, {"measurement": "concentration at 8 h", "setting": "[29]", "result": 249, "unit": "ng/g"}, {"measurement": "concentration at 8 h", "setting": "[30]", "result": 137, "unit": "ng/g"}, {"measurement": "Activity", "setting": "[31]", "result": "Non-Toxic"}, {"measurement": "Activity", "setting": "[32]", "result": "Non-Toxic"}, {"measurement": "Activity", "setting": "[33]", "result": "Active"}, {"measurement": "Activity", "setting": "[34]", "result": "Active"}, {"measurement": "Activity", "setting": "[35]", "result": "Active"}, {"measurement": "Activity", "setting": "[36]", "result": "Active"}, {"measurement": "Activity", "setting": "[37]", "result": "Active"}, {"measurement": "Activity", "setting": "[38]", "result": "Active"}]}
